Experimental data taken from patent publication US20240400560A1, “BICYCLIC HETEROCYCLIC DERIVATIVE HAVING VIRAL GROWTH INHIBITORY ACTIVITY AND PHARMACEUTICAL COMPOSITION CONTAINING SAME” (Shionogi & Co., Ltd., priority 2021, published 2024).
Read-outs that look alike come from different tables or passages of the source.

Assays:
[1] = target: SARS-CoV-2 3CL protease (Severe acute respiratory syndrome coronavirus 2, UniProt P0DTD1); experiment: Inhibitory activity test against SARS-CoV-2 3CL proteases; assay type: biochemical
[2] = test system: SARS-CoV-2; experiment: Inhibitory activity of cytopathic effect (CPE) in HEK293T/ACE2-TMPRSS2 cells; assay type: cell-based; settings: Severe acute respiratory syndrome coronavirus 2, HEK-293T, 72 h
[3] = read-out: IC50 (50% SARS-CoV-2 3CL protease inhibitory concentration)
[4] = HEK293T/ACE2-TMPRSS2 cells, cultured 3 days, CellTiter-Glo 2.0 luminescence, read-out: EC50 (50% SARS-CoV-2 infected cell death inhibitory concentration)
[5] = IC50 (50% SARS-CoV-2 3CL protease inhibitory concentration)
[6] = read-out: EC50 (50% SARS-CoV-2 infected cell death inhibitory concentration)
[7] = 50% SARS-CoV-2 infected cell death inhibitory concentration, HEK293T/ACE2-TMPRSS2 cells, CellTiter-Glo 2.0 after 3 days culture, read-out: EC50

Compound | IC50 [1, 3] [nM] | EC50 [2, 4] [nM] | IC50 [1, 5] [nM] | EC50 [2, 6] [nM] | EC50 [2, 7] [nM]
COc1nc(N2CCC(N(C)C)C2)cc2c1c(=O)n(-c1cncc(Cl)c1)c(=O)n2-c1ccc(F)c(Cl)c1 (stereo not shown) [Compound I-1022] | < 100 | < 100 | – | – | –
Cn1cnc(Cn2c(=O)c3c(cc(-c4cc(C#N)ccc4Cl)n4nnnc34)n(Cc3cc(F)c(F)c(F)c3)c2=O)n1 [Compound I-0639] | < 100 | 100 to 1000 | – | – | –
COc1nc(-c2cc(C#N)ccc2Cl)cc2c1c(=O)n(-c1cc(C)cnn1)c(=O)n2Cc1cc(F)c(F)c(F)c1 [Compound I-0929] | < 100 | < 100 | – | – | –
COc1nc(N2[C@@H]3CC[C@H]2CNC3)cc2c1c(=O)n(-c1cnc3cc(F)c(Cl)cn13)c(=O)n2-c1ccc(F)c(Cl)c1 [Compound I-0950] | – | – | < 100 | < 100 | –
C=C(C)c1cc2c(c(OC)n1)c(=O)n(-c1cnc3cc(F)ccn13)c(=O)n2-c1ccc(F)c(Cl)c1 [Compound I-1019] | 11 | – | – | – | 570
COc1cc(-c2ncccc2Cl)cc2c1c(=O)n(Cc1ncn(C)n1)c(=O)n2Cc1cc(F)c(F)c(F)c1 [Compound I-0838] | < 100 | 100 to 1000 | – | – | –
COc1nc(N2CCC(F)(F)C2)cc2c1c(=O)n(-c1cnc3ccccn13)c(=O)n2-c1ccc(F)c(Cl)c1 [Compound I-0808] | < 100 | < 100 | – | – | –
Cn1cnc(Cn2c(=O)c3c(cc(-c4cc(C#N)ccc4Cl)n4ccnc34)n(Cc3cc(F)c(F)c(F)c3)c2=O)n1 [Compound I-0642] | 3 | – | – | – | 640
[2H]C([2H])([2H])O[C@@H]1CCN(c2cc3c(c(OC)n2)c(=O)n(-c2cncc(F)c2)c(=O)n3-c2ccc(F)c(F)c2)C1 [Compound I-1028] | < 100 | < 100 | – | – | –
COc1nc(N2CC[C@@H](OC)C2)cc2c1c(=O)n(-c1cnc3cc(F)ccn13)c(=O)n2Cc1cc(F)c(F)c(F)c1 [Compound I-0731] | < 100 | < 100 | – | – | –
COc1nc(N2CCOCC2)cc2c1c(=O)n(-c1cnc3cc(F)ccn13)c(=O)n2-c1ccc(F)c(Cl)c1 [Compound I-0743] | 22 | – | – | – | 19.3
COc1nc(N2CC[C@@H](CO)C2)cc2c1c(=O)n(-c1cnc3cc(F)ccn13)c(=O)n2-c1ccc(F)c(Cl)c1 [Compound I-0750] | 6.1 | – | – | – | 25.9
[2H]C([2H])([2H])N1CCc2c(ccc(Cl)c2-c2cc(OC)c3c(=O)n(Cc4ncn(C)n4)c(=O)n(Cc4cc(F)c(F)c(F)c4)c3c2)C1=O [Compound I-0876] | < 100 | < 100 | – | – | –
COc1nc(N2CCC(F)(F)C2)cc2c1c(=O)n(-c1cncc(C)c1)c(=O)n2-c1ccc(F)c(Cl)c1 [Compound I-0954] | < 100 | < 100 | – | – | –
COc1nc2c(=O)n(Cc3ncn(C)n3)c(=O)n(Cc3cc(F)c(F)c(Cl)c3)c2cc1-c1nc(C#N)ccc1Cl [Compound I-0819] | < 100 | < 100 | – | – | –
COc1nc(N(C)CC(F)(F)F)cc2c1c(=O)n(-c1cnc3cc(F)ccn13)c(=O)n2-c1ccc(F)c(Cl)c1 [Compound I-1006] | < 100 | < 100 | – | – | –
COc1nc(N2CC[C@@H](C#N)C2)cc2c1c(=O)n(-c1cncc(OCF)c1)c(=O)n2-c1ccc(F)c(F)c1 [Compound I-0980] | < 100 | < 100 | – | – | –
COc1nc(N2C[C@@H](F)[C@@H](F)C2)cc2c1c(=O)n(-c1cnc3cc(F)ccn13)c(=O)n2-c1ccc(F)c(C(F)F)c1 [Compound I-0961] | 3.4 | – | – | – | 5.82
COc1nc(N2CC[C@@H](O)C2)cc2c1c(=O)n(-c1cncc(C(F)F)c1)c(=O)n2-c1ccc(F)c(Cl)c1 [Compound I-0964] | < 100 | < 100 | – | – | –

Compound | IC50 [1, 3] [nM] | EC50 [2, 4] [nM] | IC50 [1, 5] [nM] | EC50 [2, 6] [nM] | EC50 [2, 7] [nM]
COc1nc(N2CCC(O)(C(F)F)C2)cc2c1c(=O)n(-c1cncc(Cl)c1)c(=O)n2-c1ccc(F)c(Cl)c1 (stereo not shown) [Compound I-1036] | < 100 | < 100 | – | – | –
COc1nc(N2CCC(O)(C(F)(F)F)C2)cc2c1c(=O)n(-c1cncc(Cl)c1)c(=O)n2-c1ccc(F)c(Cl)c1 (stereo not shown) [Compound I-1064] | < 100 | < 100 | – | – | –
COc1nc(N2C[C@H]3COC[C@H]3C2)cc2c1c(=O)n(-c1cnc3cc(F)ccn13)c(=O)n2-c1ccc(F)c(Cl)c1 [Compound I-0985] | < 100 | < 100 | – | – | –
COc1nc(N2CC[C@@H](C(=O)N(C)C)C2)cc2c1c(=O)n(-c1cnc3cc(F)ccn13)c(=O)n2-c1ccc(F)c(Cl)c1 [Compound I-1045] | < 100 | < 100 | – | – | –
COc1nc(N2CC[C@@H](O)C2)cc2c1c(=O)n(-c1cncc(Cl)c1)c(=O)n2-c1ccc(F)c(F)c1 [Compound I-0979] | < 100 | < 100 | – | – | –
COc1nc(N2CCC(F)(F)C2)cc2c1c(=O)n(-c1cnc3cc(F)c(Cl)cn13)c(=O)n2-c1ccc(F)c(Cl)c1 [Compound I-0655] | < 100 | < 100 | – | – | –
COc1nc(N2[C@@H]3CCC[C@H]2CNC3)cc2c1c(=O)n(-c1cnc3ccccn13)c(=O)n2Cc1cc(F)c(F)c(Cl)c1 [Compound I-0648] | – | – | < 100 | < 100 | –
COc1cc(-n2c(=O)n(Cc3ncn(C)n3)c(=O)c3c(OC)nc(N4CC[C@@H](F)C4)cc32)cc(Cl)c1F [Compound I-0804] | < 100 | < 100 | – | – | –
[2H]C([2H])([2H])O[C@@H]1CCN(c2cc3c(c(OC)n2)c(=O)n(-c2cncc(OCF)c2)c(=O)n3-c2ccc(F)c(Cl)c2)C1 [Compound I-0963] | < 100 | < 100 | – | – | –
COc1nc(-c2cc(C#N)ccc2Cl)cc2c1c(=O)n(-c1cnc3ccccn13)c(=O)n2Cc1ccc(F)c(C#N)c1 [Compound I-0842] | 34 | – | – | – | 88.2
COc1nc(N2C[C@@H]3C[C@H]2CO3)cc2c1c(=O)n(-c1cncc(C#N)c1)c(=O)n2-c1ccc(F)c(F)c1 [Compound I-0991] | < 100 | < 100 | – | – | –
COc1nc(N2CCC(n3cccn3)C2)cc2c1c(=O)n(-c1cnc3cc(F)ccn13)c(=O)n2-c1ccc(F)c(Cl)c1 (stereo not shown) [Compound I-0975] | < 100 | < 100 | – | – | –
COc1nc(N2[C@H]3CC[C@@H]2[C@@H](O)C3)cc2c1c(=O)n(Cc1ncn(C)n1)c(=O)n2Cc1cc(F)c(F)c(F)c1 [Compound I-0602] | – | – | < 100 | < 100 | –
COc1nc(N2CCC(O)(CF)C2)cc2c1c(=O)n(-c1cnc3cc(F)ccn13)c(=O)n2-c1ccc(F)c(Cl)c1 (stereo not shown) [Compound I-1037] | < 100 | < 100 | – | – | –
[2H]C([2H])([2H])O[C@@H]1CCN(c2cc3c(c(OC)n2)c(=O)n(-c2cncc(Cl)c2)c(=O)n3-c2ccc(F)c(F)c2)C1 [Compound I-0973] | < 100 | < 100 | – | – | –
C=Cc1cc2c(c(OC)n1)c(=O)n(-c1cnc3cc(F)ccn13)c(=O)n2-c1ccc(F)c(Cl)c1 [Compound I-0999] | < 100 | 100 to 1000 | – | – | –
COc1nc2c(=O)n(Cc3ncn(C)n3)c(=O)n(Cc3cc(F)c(F)c(Cl)c3)c2cc1-c1nc(C(F)F)ccc1Cl [Compound I-0879] | < 100 | < 100 | – | – | –
COc1nc(N2[C@@H]3CC[C@H]2CNC3)cc2c1c(=O)n(-c1cnc3ccccn13)c(=O)n2Cc1cc(F)c(F)c(F)c1 [Compound I-0646] | – | – | < 100 | < 100 | –
COc1nc(N2CC[C@@H](OC(F)F)C2)cc2c1c(=O)n(-c1cnc3cc(F)ccn13)c(=O)n2-c1ccc(F)c(F)c1 [Compound I-1024] | < 100 | < 100 | – | – | –
